Assay [1] has as its system mTORC1. Conditions: cited from earlier work; for mTORC1 activation (phosphorylation of S6K1 at threonine 389): mouse embryonic fibroblast (MEF) cells.
Assay [2] deals with ischemia reperfusion (I/R)-induced iAKI. Kind of assay: functional screening of amino acids in ischemia reperfusion (I/R)-induced iAKI. The note with it: 48 hours reperfusion after 25 min ischemia, 75 mg/kg i.p. 1 hour prior and every 8 hours afterwards, vs vehicle; for BUN / sCr: n=5-6. Type of assay: in vivo, wild type C57B/L6 mice. How it is done:
FIGS. 4A-F show functional screening of amino acids for the regulation of ischemia reperfusion (I/R)-induced iAKI. Ischemia was incurred by clamping renal artery of the left kidney for 25 min while the right kidney was removed prior to clamping. Renal functions were analyzed by quantitating serum creatinine (sCr) and blood urea nitrogen (BUN) after the reperfusion for 48 hours. FIGS. 4[…]) or L-valine (Val; 75 mg/kg) were intraperitoneally administered into wild type C57B/L6 mice 1 hour prior to the induction of ischemic and every 8 hours afterwards.

The subject of assay [3] is mTORC1. Conditions: human embryonic kidney 293A (HEK293A) cells; cited from earlier work.
The subject of assay [4] is rhabdomyolysis (Rh)-induced iAKI. Kind of assay: functional screening of amino acids in rhabdomyolysis (Rh)-induced iAKI (50% glycerol i.m.). Type of assay: in vivo, wild type C57BL6 mice. The method, then:
FIGS. 2A-L show a functional screening of amino acids for the regulation of rhabdomyolysis (Rh)-induced iAKI. Rh was incurred by intramuscularly injecting 50% glycerol (6 ml/kg), and renal functions were analyzed by quantitating serum creatinine (sCr) and blood urea nitrogen (BUN) after 24, 48 and 168 hours. […] or glutamine (75 mg/kg) were intraperitoneally administered into wild type C57BL6 mice at 1 hour prior to injury incurrence. It was observed that sCr and BUN were reduced at 24 hours (FIGS. 2A, B) in isoleucine-treated rhabdomyolysis mice, but were increased at 48 hours in leucine-treated mice (FIGS. 2C, D) when compared with vehicle (Veh)-treated counterparts (n=7). […] FIG. 2[…], or histidine were intraperitoneally administered into wild type C57BL6 mice at 1 hour prior to injury incurrence and then every 8 hours thereafter. It was observed that threonine reduces sCr and BUN at 24 h and histidine reduces sCr and BUN at 24 h and 48 h when compared with Veh Rh mice. Therefore, threonine and histidine protected from Rh-induced iAKI. […] FIGS. 3A-F show a functional screening of […] or L-valine for the regulation of rhabdomyolysis (Rh)-induced iAKI. Rh was incurred by intramuscularly injecting 50% glycerol (6 ml/kg), and renal functions were analyzed by quantitating serum creatinine (sCr) and blood urea nitrogen (BUN) after 24, 48 and 168 hours. FIGS. 3[…] or L-valine (75 mg/kg) were intraperitoneally administered into wild type C57BL6 mice at 1 hour prior to injury incurrence and then every 8 hours for a total of 5 doses.

Assay [5] concerns ischemic acute kidney injury (AKI). The assay is described as follows: ischemia/reperfusion (IR) ischemic AKI in wild type mice, L-leucine pretreatment. Type of assay: in vivo. The note with it: WT IR AKI mice; 75 mg/kg i.p. 1 hour prior; 25 min ischemia, 48 hours reperfusion; vs vehicle; n=4-7. How it is done: (§1) L-leucine (75 mg/kg) was intraperitoneally administered into wild type (WT) and nephron-specific Spns1 knockout (Spns1f/f/Six2-Cre) mice 1 hour prior to initiating ischemic AKI. The left kidney was then removed. Ischemia/reperfusion (IR) was performed by clamping the renal artery of the right kidney for 25 min of ischemia followed by 48 hours of reperfusion.

The test system is the same in assay [6]. The assay is described as follows: ischemia/reperfusion (IR) ischemic AKI in nephron-specific Spns1 knockout mice, L-leucine pretreatment. Type of assay: in vivo. Conditions: Spns1f/f/Six2-Cre IR AKI mice; 75 mg/kg i.p. 1 hour prior; 25 min ischemia, 48 hours reperfusion; vs vehicle; n=4-7. How it is done: as §1
[7] abbreviates: 24 hours post Rh, 75 mg/kg i.p. 1 hour prior to injury then every 8 hours, total 5 doses, vs vehicle, n=7 (FIG. 3A).
The mark [8] stands for this setting: 24 hours post Rh, 75 mg/kg i.p. 1 hour prior to injury then every 8 hours, total 5 doses, vs vehicle, n=7 (FIG. 3B).
Setting [9] is: 24 h post Rh, i.p. 1 hour prior to injury and every 8 hours thereafter, vs Veh Rh mice (FIG. 2G).
[10] abbreviates: 24 h post Rh, i.p. 1 hour prior to injury and every 8 hours thereafter, vs Veh Rh mice (FIG. 2H).

The structures appear in SMILES notation. Read-outs that look alike come from different tables or passages of the source.

With `N[C@@H](CS)C(=O)O` [Cysteine], the “mTORC1 activation (phosphorylation of S6K1 at threonine 389)” value in assay [1] is reported as “activates”.
As for `C[C@H](N)C(=O)O` [L-alanine], the “impacts on I/R-AKI (sCr and BUN)” value in assay [2] was “Neither L-serine (FIGS. 4A, B), L-alanine (FIGS. 4A, B) nor L-methionine (FIGS. 4C, D) had significant impacts”. For the same compound, the “mTORC1 activation (phosphorylation of S6K1 at threonine 389)” value in assay [1] and in assay [3] was “activate” each time.
As for `N=C(N)NCCC[C@H](N)C(=O)O` [L-arginine], the values for the sCr result in assay [4] (setting [7]) and in assay [2] were “reduced” and “elevated”, respectively. The BUN result was “reduced” in assay [4] (setting [8]) and “elevated” in assay [2]. Further, the “mTORC1 activation (phosphorylation of S6K1 at threonine 389)” value in assay [1] and in assay [3] was “activate” throughout.
Regarding `N[C@@H](CC(=O)O)C(=O)O` [L-aspartic acid], in assay [2], the BUN result was “reduced” and the sCr entry is listed as “reduced”.
On to `NC(=O)CC[C@H](N)C(=O)O` [L-glutamine], for which, in assay [4] (24, 48 and 168 hours post Rh, 75 mg/kg i.p. 1 hour prior to injury, vs vehicle (FIGS. 2A-F)), the “effects on Rh-induced AKI (sCr and BUN)” value is “no significant effects”. In assay [2], the BUN result is “reduced” and the sCr result was “reduced”. In addition, the “mTORC1 activation (phosphorylation of S6K1 at threonine 389)” value in assay [1] was “activate”. The “mTORC1 activation (phosphorylation of S6K1 at threonine 389)” value in assay [3] is “activate”.
For `N[C@@H](Cc1c[nH]cn1)C(=O)O` [L-histidine], the sCr result in assay [4] (setting [9]) is recorded as “reduces”; in assay [4] (48 h post Rh, i.p. 1 hour prior to injury and every 8 hours thereafter, vs Veh Rh mice (FIG. 2I)), “reduces”; in assay [2], “reduced”. Moreover, the BUN result in assay [4] (setting [10]) is recorded as “reduces”; in assay [4] (48 h post Rh, i.p. 1 hour prior to injury and every 8 hours thereafter, vs Veh Rh mice (FIG. 2J)) it was “reduces”; in assay [2] it was “reduced”. Moreover, the “mTORC1 activation (phosphorylation of S6K1 at threonine 389)” value in assay [1] and in assay [3] was “activate” each time.
`CC[C@H](C)[C@H](N)C(=O)O` [L-isoleucine]: the sCr entry in assay [4] (24 hours post Rh, 75 mg/kg i.p. 1 hour prior to injury, vs vehicle, n=7 (FIG. 2A)) was “reduced”; in assay [2] it was “reduced”. In addition, the BUN entry is on record as “reduced” in assay [4] (24 hours post Rh, 75 mg/kg i.p. 1 hour prior to injury, vs vehicle, n=7 (FIG. 2B)) and “reduced” in assay [2].
On to `CC(C)C[C@H](N)C(=O)O` [L-leucine], for which the “Serum creatinine (sCr)” value in assay [5] and in assay [6] was “markedly reduced” in each case. The “blood urea nitrogen (BUN)” value in assay [5] and in assay [6] was “markedly reduced” throughout. The sCr entry was “increased” in assay [4] (48 hours post Rh, 75 mg/kg i.p. 1 hour prior to injury, vs vehicle, n=7 (FIG. 2C)) and “reduced” in assay [2]. The BUN result in assay [4] (48 hours post Rh, 75 mg/kg i.p. 1 hour prior to injury, vs vehicle, n=7 (FIG. 2D)) is reported as “increased”; in assay [2], “reduced”. Further, the “mTORC1 activation (phosphorylation of S6K1 at threonine 389)” value in assay [1] and in assay [3] was “activate” throughout.
Take `CSCC[C@H](N)C(=O)O` [L-methionine]: in assay [2], the “impacts on I/R-AKI (sCr and BUN)” value is reported as “Neither L-serine (FIGS. 4A, B), L-alanine (FIGS. 4A, B) nor L-methionine (FIGS. 4C, D) had significant impacts”. For the same compound, the “mTORC1 activation (phosphorylation of S6K1 at threonine 389)” value in assay [1] and in assay [3] was “activate” each time.
As to `N[C@@H](CO)C(=O)O` [L-serine], in assay [2], the “impacts on I/R-AKI (sCr and BUN)” value is given as “Neither L-serine (FIGS. 4A, B), L-alanine (FIGS. 4A, B) nor L-methionine (FIGS. 4C, D) had significant impacts”. Moreover, the “mTORC1 activation (phosphorylation of S6K1 at threonine 389)” value in assay [1] and in assay [3] was “activate” throughout.
With `C[C@@H](O)[C@H](N)C(=O)O` [L-threonine], the sCr result in assay [4] (setting [9]) is “reduces”; in assay [2] it was “reduced”. The BUN result is recorded as “reduces” in assay [4] (setting [10]) and “reduced” in assay [2]. In addition, the “mTORC1 activation (phosphorylation of S6K1 at threonine 389)” value in assay [1] and in assay [3] was “activate” in each case.
Consider `CC(C)[C@H](N)C(=O)O` [L-valine], for which the sCr result was “reduced” in assay [4] (setting [7]); “reduced” in assay [4] (48 hours post Rh, 75 mg/kg i.p. 1 hour prior to injury then every 8 hours, total 5 doses, vs vehicle, n=7 (FIG. 3C)); “elevated” in assay [2]. For the same compound, the BUN result is on record as “reduced” in assay [4] (setting [8]); “reduced” in assay [4] (48 hours post Rh, 75 mg/kg i.p. 1 hour prior to injury then every 8 hours, total 5 doses, vs vehicle, n=7 (FIG. 3D)); “elevated” in assay [2]. Besides, the “mTORC1 activation (phosphorylation of S6K1 at threonine 389)” value in assay [1] and in assay [3] was “activate” throughout.
With `NC(=O)C[C@H](N)C(=O)O` [asparagine], the “mTORC1 activation (phosphorylation of S6K1 at threonine 389)” value in assay [1] and in assay [3] was “activate” throughout.
As to `C[C@H]1CCC/C=C/[C@@H]2C[C@H](O)C[C@H]2[C@H](O)/C=C/C(=O)O1` [brefeldin A, reference compound], the “lysosomal localization of mTORC1 induced by glutamine and asparagine” value in assay [1] (MEFs) is recorded as “impairs”. Besides, the “glutamine and asparagine-induced mTORC1 activation” value in assay [1] (wild type and Rag depleted MEFs) is given as “inhibits”.
